# Assays:
# MAO-B [1] = target: T1, MAO-B (Rattus norvegicus, UniProt P19643); assay: Kinetic parameters of suicide-type inhibition, MAO-B (selectivity K1 MAO-A / K1 MAO-B); type: biochemical, Sprague-Dawley rat; conditions: selectivity for MAO-B
# T1 construct: from tissue; host or cells: Sprague-Dawley rat liver, mitochondrial fraction
# T1 sequence (P19643 1-520): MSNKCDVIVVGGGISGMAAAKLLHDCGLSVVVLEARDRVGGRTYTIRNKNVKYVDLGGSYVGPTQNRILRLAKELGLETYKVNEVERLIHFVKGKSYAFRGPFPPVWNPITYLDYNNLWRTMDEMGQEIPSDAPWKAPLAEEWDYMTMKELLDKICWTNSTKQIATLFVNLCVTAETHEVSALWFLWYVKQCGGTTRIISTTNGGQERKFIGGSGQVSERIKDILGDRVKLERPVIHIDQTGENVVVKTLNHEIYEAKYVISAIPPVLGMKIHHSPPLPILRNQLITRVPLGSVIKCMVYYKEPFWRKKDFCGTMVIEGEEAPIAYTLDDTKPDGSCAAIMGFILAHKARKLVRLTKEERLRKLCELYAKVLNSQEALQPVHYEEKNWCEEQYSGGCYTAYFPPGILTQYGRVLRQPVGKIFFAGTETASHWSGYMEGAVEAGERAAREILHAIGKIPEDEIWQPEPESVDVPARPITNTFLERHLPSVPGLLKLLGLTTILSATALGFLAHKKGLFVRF
# Text: K1 is the affinity constant of the first stage of the reaction and K1 MAO-A / K1 MAO-B the expression of the selectivity.
# K^1cat is the velocity constant for the formation of the covalent irreversible complex during the second stage of the process. To compare the values of these constants towards the two forms of MAO, we express the inhibition efficacy as the ratio K^1cat/K1. The value of these constants (see Tables 2 and 3), is the result of three different experiments, with their corresponding SEM.
# MAO-A [2] = target: T2, MAO-A (Homo sapiens, UniProt P21397); assay: MAO-A inhibition in homogenated human cerebral cortex; type: biochemical
# T2 construct: performed using homogenated human cerebral cortex obtained from autopsies; from tissue; host or cells: post-mortem human cerebral cortex homogenate
# T2 sequence (P21397 1-527): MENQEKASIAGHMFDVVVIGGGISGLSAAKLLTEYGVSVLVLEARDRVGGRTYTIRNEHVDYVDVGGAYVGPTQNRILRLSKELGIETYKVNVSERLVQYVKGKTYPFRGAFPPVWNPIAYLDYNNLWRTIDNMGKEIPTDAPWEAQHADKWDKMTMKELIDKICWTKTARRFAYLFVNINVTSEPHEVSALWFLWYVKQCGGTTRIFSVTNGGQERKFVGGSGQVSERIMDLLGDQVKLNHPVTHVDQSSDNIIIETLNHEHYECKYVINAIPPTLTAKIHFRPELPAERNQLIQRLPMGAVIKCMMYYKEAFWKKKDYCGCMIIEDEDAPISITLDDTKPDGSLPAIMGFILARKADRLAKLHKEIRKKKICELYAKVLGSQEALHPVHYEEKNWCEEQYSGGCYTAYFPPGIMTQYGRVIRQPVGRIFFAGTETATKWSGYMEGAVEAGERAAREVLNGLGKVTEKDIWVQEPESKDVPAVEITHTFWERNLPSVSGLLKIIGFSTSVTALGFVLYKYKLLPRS
# Text: They were provided by Dr. Fco Javier González Oliván (Forensic Anatomic Institute of the Hospital Clínico Provincial in Barcelona).
# MAO-B [3] = target: T3, MAO-B (Mus musculus, UniProt Q8BW75); assay: Ex vivo inhibition of brain MAO-B after i.p. administration
# T3 sequence (Q8BW75 1-520): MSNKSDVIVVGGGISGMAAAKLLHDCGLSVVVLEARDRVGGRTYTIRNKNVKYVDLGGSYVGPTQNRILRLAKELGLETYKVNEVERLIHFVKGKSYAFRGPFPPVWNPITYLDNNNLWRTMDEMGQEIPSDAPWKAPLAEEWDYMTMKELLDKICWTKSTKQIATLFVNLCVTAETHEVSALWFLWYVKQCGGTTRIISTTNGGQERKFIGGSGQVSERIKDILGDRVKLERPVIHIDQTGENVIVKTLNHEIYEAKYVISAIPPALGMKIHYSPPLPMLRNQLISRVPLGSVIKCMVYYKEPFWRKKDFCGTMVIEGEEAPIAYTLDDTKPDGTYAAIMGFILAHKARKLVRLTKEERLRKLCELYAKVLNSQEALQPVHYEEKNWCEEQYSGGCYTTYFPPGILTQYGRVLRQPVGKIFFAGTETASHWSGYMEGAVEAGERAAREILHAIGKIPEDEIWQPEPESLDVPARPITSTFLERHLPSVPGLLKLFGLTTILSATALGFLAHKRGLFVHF
# Protocol: (§1) The pharmacological assays were carried out on C57/BL mice. These animals are sensitive to the induction of the symptomatology of Parkinson's disease through the action of MPTP.
# (§2) The animals were sacrificed by decapitation after 2 hours and the brains homogenised in potassium phosphate buffer 50 mM, pH 7.2. Determinations were made of the MAO-A and MAO-B activity in each case using radiometric methods.
# MAO-A [4] = target: T4, MAO-A (Mus musculus, UniProt Q64133); assay: Ex vivo inhibition of brain MAO-A after i.p. administration; type: in vivo, C57/BL mice; conditions: mouse brain homogenate 2 hours after i.p., l-deprenyl 10 mg/Kg, tested compound 4 mg/Kg
# T4 construct: the brains homogenised in potassium phosphate buffer 50 mM, pH 7.2; from tissue; host or cells: C57/BL mouse brain homogenate
# T4 sequence (Q64133 1-526): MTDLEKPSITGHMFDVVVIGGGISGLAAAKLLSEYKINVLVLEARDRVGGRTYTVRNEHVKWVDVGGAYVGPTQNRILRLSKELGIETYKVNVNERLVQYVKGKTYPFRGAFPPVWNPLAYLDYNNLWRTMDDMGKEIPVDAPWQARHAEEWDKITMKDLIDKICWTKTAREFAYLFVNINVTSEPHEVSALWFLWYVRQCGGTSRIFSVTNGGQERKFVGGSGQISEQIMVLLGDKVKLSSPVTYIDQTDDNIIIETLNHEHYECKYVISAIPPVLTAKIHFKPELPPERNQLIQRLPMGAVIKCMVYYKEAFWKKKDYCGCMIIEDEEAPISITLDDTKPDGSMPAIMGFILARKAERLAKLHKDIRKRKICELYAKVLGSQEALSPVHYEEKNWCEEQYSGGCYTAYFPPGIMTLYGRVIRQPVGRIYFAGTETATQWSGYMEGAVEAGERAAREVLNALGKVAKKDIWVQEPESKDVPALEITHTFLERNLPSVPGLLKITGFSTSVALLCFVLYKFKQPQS
# Protocol: as §1, §2
# ibotenic acid = assay: Protection against the neurotoxicity of ibotenic acid (brain acetylcholine); type: in vivo, Sprague-Dawley rats; conditions: homogenised rat brain; 3 mg/Kg i.p. 2 h before intracerebroventricular ibotenic acid; ibotenic acid alone 3%; depending on the dose
# Protocol: One group of Sprague-Dawley rats was treated with compound FA-73 (3 mg/Kg, i.p.) followed two hours later by an stereotaxic injection of ibotenic acid into the cerebral ventricles at a dose that would induce an Alzheimer type of pathology. After sacrificing the animals, determinations were made of the acetylcholine (AC) in the homogenised brains.
smiles,measurement,setting,value
C#CCNCc1cc2cc(OCc3ccccc3)ccc2[nH]1 [FA-73],K1 MAO-A/K1 MAO-B,MAO-B [1],1066.6
same,IC50,MAO-A [2],20 µM
same,crossing of the hematoencephalic barrier,MAO-B [3]; concluded from brain MAO-B inhibition after 4 mg/Kg i.p. in C57/BL mice,crosses the hematoencephalic barrier
same,MAO-B ACTIVITY,"MAO-B [3]; mouse brain homogenate 2 hours after i.p., l-deprenyl 10 mg/Kg, tested compound 4 mg/Kg, control 303",16
same,remaining activity at 4 mg/kg,"MAO-A [4]; ip, control = 100%",96.2%
same,MAO-A ACTIVITY,MAO-A [4]; control 485,467
same,acetylcholine level,ibotenic acid,up to 85 % of the control
